Where two headings read alike, the source gives them in different places.
Columns and labels:
HCT116 colon cancer cell [1] = experiment: HCT116 colon cancer cell proliferation (xCELLigence); format: cell-based, human; conditions: AOAA 1 mM; 36 hours
NCM356 cells = experiment: NCM356 non-malignant colonic epithelial cell proliferation (xCELLigence); format: cell-based, human; conditions: AOAA 1 mM
Experimental: Cellular proliferation assays are conducted in HCT116 CRC cells in vitro, using the Roche XCelligence method. Concentration-response curves with the various AOAA analogs are prepared (concentration range: 1, 3, 10, 100, 300 and 600 μM). AOAA is used as the reference control, which, according to preliminary data, has an IC50 of approximately 300 μM. Control proliferation studies in the non-carcinogenic colonic epithelial cell line NCM356 are used to confirm cancer-cell selectivity. Since the NCM356 cells contain low levels of CBS, based on previous studies it is expect that AOAA (and its prodrugs) will only exert modest antiproliferative effects in these cells. Proliferation-inhibitory effects of the AOAA prodrugs in NCM356 cells indicate CBS-independent pharmacological actions. […]
Cellular migration and invasion assays were performed as described (Chao et al. (1996) Cancer Res. 56:4811-19). […] Migrated and invaded cells were then fixed in Carson's fixative, stained in 0.33% toluidine blue and quantified by visual counting. For the HCT116-EAhy926 co-culture experiment, the cancer cell line was grown to confluence in the bottom wells of the transwell chambers and then endothelial cell migration was assessed (Coletta et al. (2012) Proc Natl Acad Sci USA. 109:9161-66). […]

HCT116 cells = experiment: Bioenergetic analysis in intact cells (XF24 Extracellular Flux Analyzer); format: cell-based, human; conditions: AOAA 1 mM
Experimental: The XF24 Extracellular Flux Analyzer (Seahorse Bioscience, Billerica, Mass.) was used to measure bioenergetic function as described in Módis et al. ((2013) FASEB J 27:601-11) and Wu et al. ((2007) Am J Physiol Cell Physiol. 292:C125-36). Oxygen consumption rate (OCR) after oligomycin (1.5 μg/ml) was used to assess ATP production rate and OCR after FCCP (0.5 μM) to assess maximal mitochondrial respiratory capacity. 2-deoxyglucose (100 mM) was used to estimate cellular glycolytic dependency and antimycin A (2 μg/m) and rotenone (2 μM) were used to inhibit the flux of electrons through complex III and I, to detect residual non-mitochondrial activity. For the measurement of glycolytic parameters, the changes in proton production rate (PPR) were monitored in response to the sequential administration of D-glucose (10 mM), oligomycin (1.5 μM) and 2-deoxyglucose (100 mM), to assess glycolysis, maximal glycolytic capacity, glycolytic reserve capacity, and non-glycolytic acidification rate, respectively. GAPDH activity was determined by a kinetic assay (ScienCell, Carlsbad, Calif.).

HCT116 colon cancer cell [2] = experiment: HCT116 colon cancer cell proliferation (xCELLigence); format: cell-based, human; conditions: Homo sapiens, HCT-116
Experimental: Cellular proliferation assays are conducted in HCT116 CRC cells in vitro, using the Roche XCelligence method. Concentration-response curves with the various AOAA analogs are prepared (concentration range: 1, 3, 10, 100, 300 and 600 μM). AOAA is used as the reference control, which, according to preliminary data, has an IC50 of approximately 300 μM. Control proliferation studies in the non-carcinogenic colonic epithelial cell line NCM356 are used to confirm cancer-cell selectivity. Since the NCM356 cells contain low levels of CBS, based on previous studies it is expect that AOAA (and its prodrugs) will only exert modest antiproliferative effects in these cells. Proliferation-inhibitory effects of the AOAA prodrugs in NCM356 cells indicate CBS-independent pharmacological actions. A collection of human colorectal tumor tissue samples (and surrounding non-cancerous tissue) are used to test the conversion of the AOAA prodrugs to AOAA in a number of cancer samples.
Cellular migration and invasion assays were performed as described (Chao et al. (1996) Cancer Res. 56:4811-19). Briefly, 10^5 cells were suspended in serum-free media containing 0.1% BSA and then added to 6.5 mm Transwell chambers ([…]) uncoated (migration assay) or coated with a thin layer (45 μl) of growth factor reduced matrigel (cell invasion assay). Cells were allowed to migrate toward the bottom chamber containing fibroblast (NIH-3T3 cells) conditioned media at 37° C. for 6 or 24 h for cell migration and invasion, respectively. Migrated and invaded cells were then fixed in Carson's fixative, stained in 0.33% toluidine blue and quantified by visual counting. For the HCT116-EAhy926 co-culture experiment, the cancer cell line was grown to confluence in the bottom wells of the transwell chambers and then endothelial cell migration was assessed (Coletta et al. (2012) Proc Natl Acad Sci USA. 109:9161-66). For assessment of colon cell proliferation, the xCELLigence system (Roche) was used (Szabo and Papapetropoulos (2011) Br J Pharmacol. 164:853-65).
For assessment of cell proliferation, the xCELLigence system (Roche) was used. Briefly, HCT116 cells were cultured until approximately 70% confluence. Cells were then detached by Trypsin-EDTA and resuspended in fresh culture media at a concentration of 30,000 cells/ml. 200 μl of cell suspension was added to each well (6,000 cells/well) of a E-plate 96, a specially designed 96-well microtiter plate containing interdigitated microelectrodes to non-invasively monitor the cell proliferation by measuring the relative change in the electrical impedance of the cell monolayer, a unitless parameter named cell index (CI). Cells were then treated with YD02-51 and proliferation was monitored for 48 hours.

[3] = test system: human endothelial cells (EAhy926); experiment: Endothelial cell migration in co-culture with HCT116; format: cell-based; conditions: 4 hours at 37° C.
Experimental: FIG. 3. […] (A, B) The lentiviral shRNA vectors targeting CBS (shCBS) and CSE (shCSE) were transfected into HCT116 cells. A non-targeting sequence was used as control (shNT). […] Following CBS and CSE silencing, cells were seeded at the density of 3000 cells/well in xCELLigence plates and proliferation was monitored for 36 hours. […] The NCM356 cells were infected overnight with a CBS expressing adenovirus (Ad-CBS, 10 multiplicity of infection (MOI)) or its control, a green fluorescent protein (Ad-GFP). The culture media was then replaced and cells were seeded in XCelligence plates at 3000 cells/well. Cell proliferation was then measured real-time over 36 hours. […] (H, I) The effect of AOAA and NaHS was also tested on HCT116 cell migration (H) and invasion (I). […]
Cellular migration and invasion assays were performed as described (Chao et al. (1996) Cancer Res. 56:4811-19). […] Migrated and invaded cells were then fixed in Carson's fixative, stained in 0.33% toluidine blue and quantified by visual counting. For the HCT116-EAhy926 co-culture experiment, the cancer cell line was grown to confluence in the bottom wells of the transwell chambers and then endothelial cell migration was assessed (Coletta et al. (2012) Proc Natl Acad Sci USA. 109:9161-66).

For NOCC(=O)O [AOAA, aminooxyacetic acid], the HCT116 cell proliferation (HCT116 colon cancer cell [1]) was “markedly reduced”, the NCM356 growth (NCM356 cells) was “did not affect” and the “basal OCR, calculated ATP production, maximal respiration and Spare Respiratory Capacity” value (HCT116 cells) was “significantly decreased”. The “maximal glycolytic capacity and glycolytic reserve capacity” value (HCT116 cells) was “significantly diminished”, the inhibition at 300 µM (HCT116 colon cancer cell [2]; 300 μM, HCT116) was 21% and the IC50 (HCT116 colon cancer cell [2]; read-out: IC50 (μM), inhibition of HCT116 colon cancer cell proliferation) was 1780 µM. For the same compound, the IC50 (HCT116 colon cancer cell [2]; reference control, preliminary data, XCelligence, read-out: IC50, HCT116 proliferation (preliminary data)) was roughly 300 µM and the “HCT116-induced endothelial cell migration” value [3] was “reduced”.
